# According to patent publication EP4600261A1, “KERATIN YK93-2, AND PREPARATION METHOD THEREFOR, PHARMACEUTICAL COMPOSITION THEREOF AND USE THEREOF” (INSTITUTE OF MATERIA MEDICA, CHINESE ACADEMY OF MEDICAL …, priority 2022, dated 2024):
# Where a name gives a salt, the structure may show the parent alone.
# System: mouse pain model
# Assay: mouse pain model, acetic acid-induced writhing
# Assay type: in vivo, Male Kunming mice
# Conditions: Tramadol Hydrochloride 50mg/kg, 1% acetic acid intraperitoneally, writhing within 15 minutes
# Procedure: • Animals: Male Kunming mice; • Drugs: Tramadol Hydrochloride Sustained Release Tablets, Glacial acetic acid, YK93-2; • Instruments: electronic balance, timer
# • Normal control group; • Positive control group: Tramadol Hydrochloride group; • Protein YK93-2, (2g/kg) group.
# Mice in the YK93-2 (2g/kg) group were administered by gavage, while mice in the model group were given an equal volume of CMC-Na once a day for 7 consecutive days. 30 minutes after the last administration, 1% acetic acid was administered intraperitoneally, and the writhing times of mice within 15 minutes was recorded, and the inhibition rate of drug-induced writhing reaction was calculated. The observation criteria were concave abdominal cavity, extended hind limbs, and raised buttocks.
# The inhibition rate was calculated by (Mean number of writhing reactions in the normal control group - Mean number of writhing reactions in the treatment group)/Mean number of writhing reactions in the normal control group * 100%.
compound,measurement,value
COc1cccc(C2(O)CCCCC2CN(C)C)c1 (stereo not shown) [Tramadol Hydrochloride],Number of writhing,significantly reduced
